≈ marks a conversion by molar mass, not a printed value. Entries after “also recorded” stand apart in the source; their conditions may differ.
Key:
Assay type in all cases: biochemical
[1] = biological target: hyaluronidase (Bos taurus, UniProt Q2YDK3); assay: Hyaluronidase inhibition test; conditions: for inhibition at 20 µg/mL: test concentration 20 μg/ml; for inhibition at 20 µg/mL / inhibition at 40 µg/mL / inhibition at 80 µg/mL: read-out: Percent hyaluronidase inhibition (%); for inhibition at 40 µg/mL: test concentration 40 μg/ml; for hyaluronidase inhibitory activity (in words): statement in the text
Protocol: Tests for hyaluronidase inhibition of the extract prepared in Example 2 (hereinafter referred to as the “blue rose petal extract”), the HP-20 column fractions of the blue rose petal extract (60% acetonitrile fractions) and rosadelphin A1 were carried out in accordance with a modified version of the method described by Yumie Maeda et al. in Shokukin Eiseigaku Zasshi (Journal of the Food Hygiene Society of Japan) 31(3), 233-237 (1990). Hyaluronic acid is decomposed by hyaluronidase to give N-acetylhexosamine. To measure the hyaluronidase inhibitory activity, the reducing terminal N-acetylglucosamine was quantified in terms of absorbance due to color development as labeled by p-dimethylaminobenzaldehyde (product of Wako Pure Chemical Industries, Ltd. which is hereinafter abbreviated as p-DAB).
A sample solution (40 μL) in 10% DMSO was mixed with 20 μL of 1000 U/mL hyaluronidase (product of Sigma) dissolved in 0.1 M acetate buffer (pH 4.0) and the mixture was preheated at 37° C. for 20 minutes. To the heated mixture, 40 μL of 0.5 mg/mL Compound 48/80 (product of Sigma) dissolved in the same buffer was added and the resulting mixture was allowed to settle at 37° C. for 20 minutes undisturbed until the hyaluronidase was activated. To the solution, 100 μL of a solution of 0.8 mg/mL potassium hyaluronate was added to give a final concentration of 0.4 mg/mL and reaction was effected at 37° C. for 40 minutes; thereafter, 40 μL of 0.4 N sodium hydroxide in solution was added and the mixture was cooled with ice to quench the reaction. To the reaction mixture, 40 μL of 0.8 M boric acid in solution adjusted to pH 9.1 with 6 N NaOH was added and the resulting mixture was boiled at 100° C. for 3 minutes. The mixture was then cooled to room temperature in ice bath; to the cooled mixture, 1.2 mL of 10 mg/mL p-dimethylaminobenzaldehyde (p-DAB) in solution was added while it was shielded from light and after reaction was effected at 37° C. for 20 minutes, the absorbance at 585 nm (A585) was measured. The hyaluronidase inhibitory activity of the sample was expressed in terms of percent inhibition calculated from the following formula: Percent inhibition (%)={1−(a−b)/(c−d)}×100
a: A585 of the sample solution to which the enzyme was added
b: A585 of the sample solution to which no enzyme was added
c: A585 of the control solution to which the enzyme was added
d: A585 of the control solution to which no enzyme was added.
A positive control was prepared by adding not the sample solution, but 800 μg/ml (1.56 mM as molar concentration) of sodium chromoglycate (product of Sigma which is hereinafter abbreviated as DSCG) in an amount of 40 μL to give a test concentration of 160 μg/ml.

[2] = biological target: T1, elastase (Sus scrofa, UniProt P00772); assay: Elastase inhibition test; conditions: for elastase inhibiting activity (in words): statement in the text
T1 construct: purchased Sigma
Protocol: The blue rose petal extract, fractions thereof as products of treatment on a column (60% acetonitrile fractions), rosadelphin A1, rosacyanin A1, and tellimagrandin 1 were subjected to an elastase inhibition test that was performed by the following method.
An enzyme solution was prepared by dissolving 0.1 ml of elastase (product of Sigma) in 0.2 M Tris buffer at pH 8.0 (hereinafter referred to as a Tris buffer) to give a concentration of 0.05 units/mL and diluted 100 folds just before use. A substrate solution was prepared by dissolving N-Succinyl-Ala-Ala-Ala-p-nitroanilide (product of Sigma) in a Tris buffer to give a concentration of 4 mM. To a 96-well plate, 50 μL of a solution of each sample dissolved in 10% DMSO and 50 μL of the enzyme solution were added and after mixing them with a plate shaker, the resulting mixture was preheated at 25° C. for 10 minutes. Subsequently, 100 μL of the substrate solution was added and after mixing with a plate shaker, reaction was carried out at 25° C. for 30 minutes and immediately thereafter, the liberation of p-nitroaniline was assayed by measuring the absorbance at a wavelength of 405 nm (hereinafter designated as A405). A405 measurement was also performed for a blank of sample solution that was prepared by adding a Tris buffer in place of the substrate solution, as well as for a control solution that was prepared by adding 10% DMSO in place of the sample solution. The inhibitory activity of each sample was calculated in terms of the percent inhibition determined by the following formula: Percent elastase inhibition (%)=[(f−e)−{(b−a)−(d−c)}]/(f−e)×100 […]
a: A405(0 min) of the sample solution for enzymatic reaction b: A405(30 min) of the sample solution for enzymatic reaction c: A405(0 min) of the blank of sample solution d: A405(30 min) of the blank of sample solution e: A405(0 min) of the control solution f: A405(30 min) of the control solution.

[3] = system: collagenase Type IV; assay: Collagenase inhibition test; conditions: for collagenase inhibitory activity (in words): statement in the text
Protocol: The blue rose petal extract, fractions thereof as products of treatment on a column (60% acetonitrile fractions), rosadelphin A1, rosacyanin A1, and tellimagrandin 1 were subjected to a collagenase inhibition test in accordance with a modified version of the method described in a document (Wunsch et al., Hoppe Seylers Z Physiol Chem., 333, 149-51 (1963)). For details, see below.
An enzyme solution was prepared by dissolving […] of collagenase Type IV (product of Sigma) in 1 mL of dissolved water to give a concentration of 100 μg/mL (55.1 units/mL) and diluted 50 folds just before use. A substrate solution was prepared by dissolving PZ-peptide (4-phenylazo-benzyloxycarbonyl-Pro-Leu-Gly-Pro-D-Arg-OH) (Pz-Pro-Leu-Gly-Pro-D-Arg-OH; product of Sigma) in a […] calcium chloride containing tris-HCl buffer (pH 7.1) to give a concentration of 0.5 μg/mL. To 20 μL of a solution of sample dissolved in 10% DMSO, 20 μL of the enzyme solution and 160 μL of the substrate solution were added and the mixture was subjected to reaction at 37° C. for 30 minutes. Subsequently, 400 μL of a 25 mM citric acid solution was added to quench the reaction and Pz-Pro-Leu in the reaction mixture was extracted with 2 mL of ethyl acetate. The resulting ethyl acetate layer was measured for absorbance at a wavelength of 320 nm, with ethyl acetate being used as a control. The inhibitory activity of each sample was calculated in terms of the percent inhibition determined by the following formula: Percent collagenase inhibition (%)={1−(a−b)/(c−d)}×100 […]
a: Absorbance after […] reaction in the presence of added sample b: Absorbance after […] reaction in the presence of added sample c: Absorbance after 30 min reaction in the absence of added sample d: Absorbance after 0 min reaction in the absence of added sample.

[4] = Table 8, test concentration 40 μg/mL
[5] = Table 8, test concentration 80 μg/mL
[6] = Table 8, test concentration 160 μg/mL
[7] = Table 3, test concentration 80 μg/ml
[8] = Table 6, test concentration 40 μg/ml

Chain of hyaluronidase (Q2YDK3 entry or part of it): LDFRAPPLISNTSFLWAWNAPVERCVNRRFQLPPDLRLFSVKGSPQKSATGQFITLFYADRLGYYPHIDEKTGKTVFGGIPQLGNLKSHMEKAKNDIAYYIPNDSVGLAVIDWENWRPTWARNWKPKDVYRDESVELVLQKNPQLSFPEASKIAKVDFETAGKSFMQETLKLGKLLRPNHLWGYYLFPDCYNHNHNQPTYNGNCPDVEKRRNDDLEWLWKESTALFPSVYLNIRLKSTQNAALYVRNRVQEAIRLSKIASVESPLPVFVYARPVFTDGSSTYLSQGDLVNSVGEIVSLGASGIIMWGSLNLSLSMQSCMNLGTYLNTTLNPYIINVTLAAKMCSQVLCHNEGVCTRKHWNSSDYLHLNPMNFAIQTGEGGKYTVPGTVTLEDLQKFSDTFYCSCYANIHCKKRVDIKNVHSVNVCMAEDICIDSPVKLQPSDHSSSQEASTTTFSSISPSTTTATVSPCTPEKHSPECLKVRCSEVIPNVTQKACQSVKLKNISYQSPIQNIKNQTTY
T1 sequence (P00772 27-266): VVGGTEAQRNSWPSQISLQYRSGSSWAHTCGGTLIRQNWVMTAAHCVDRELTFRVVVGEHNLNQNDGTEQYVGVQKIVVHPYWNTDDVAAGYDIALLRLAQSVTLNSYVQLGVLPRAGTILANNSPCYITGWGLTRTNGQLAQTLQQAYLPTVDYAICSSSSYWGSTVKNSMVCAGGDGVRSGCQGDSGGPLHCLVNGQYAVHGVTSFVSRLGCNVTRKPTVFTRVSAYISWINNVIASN

Compound | Percent elastase inhibition (%) [2, 4] [%] | Percent elastase inhibition (%) [2, 5] [%] | Percent elastase inhibition (%) [2, 6] [%] | elastase inhibiting activity (in words) [2] | inhibition at 20 µg/mL ([1]; Table 3) [%] | inhibition at 40 µg/mL ([1]; Table 3) [%] | inhibition at 80 µg/mL [1, 7] [%] | Percent collagenase inhibition (%) [3, 8] | collagenase inhibitory activity (in words) [3] | hyaluronidase inhibitory activity (in words) [1] | further results
O=C([O-])c1cc(=O)c2c(OCC(O)COc3cccc4oc(C(=O)[O-])cc(=O)c34)cccc2o1.[Na+].[Na+] [DSCG, sodium chromoglycate, reference compound] |  |  |  |  |  |  |  |  |  |  | Percent hyaluronidase inhibition (%) ([1]; Table 3, positive control at 160 μg/ml): * Percent inhibition by 160 μg/ml DSCG: 22.3%
O=C(OC1C(O)OC2COC(=O)c3cc(Oc4c(-c5cc(O)c(O)c(O)c5)[o+]c5cc(O)cc6c5c4-c4c(C(=O)O)cc(O)c(O)c4O6)c(O)c(O)c3-c3c(cc(O)c(O)c3O)C(=O)OC2C1OC(=O)c1cc(O)c(O)c(O)c1)c1cc(O)c(O)c(O)c1 (centres unmarked) [Rosadelphin A1, rosadelphin A1] | 31.8 | 40.4 | 49.4 | comparable or more than comparable activity to rosacyanin A1 | 24.4 | 48.2 | 95.3 | 42.3% | greater activity than the blue rose petal extract |  | inhibition at 40 µg/mL ([2]; Table 8, test concentration 40 μg/mL, read-out: Percent elastase inhibition (%)): 50.7%; inhibition at 80 µg/mL ([2]; Table 8, test concentration 80 μg/mL, read-out: Percent elastase inhibition (%)): 58.1%; inhibition at 160 µg/mL ([2]; Table 8, test concentration 160 μg/mL, read-out: Percent elastase inhibition (%)): 62%; elastase inhibiting activity (in words) ([2]; listed as rosadelphin A1): strong activity in a concentration dependent manner; hyaluronidase inhibitory activity (in words) ([1]; listed as rosadelphin A1): strong activity in a concentration dependent manner; also recorded: strong hyaluronidase inhibitory activity
CC(C)CCP(=O)([O-])NCC(=O)N1CCCC1C(=O)NC(C)C(=O)[O-].[K+].[K+] [IP304, isoamylphosphonyl-Glycyl-L-Prolyl-L-Alanine, dipotassium salt, reference compound] |  |  |  |  |  |  |  | *Percent inhibition by 40 μg/ml IP304: 69.7% |  |  | Percent collagenase inhibition (%) ([3]; Table 5, test concentration 80 μg/mL): * Percent inhibition by 80 μg/mL IP304: 84.1%
O=C(O[C@H]1[C@@H]2OC(=O)c3cc(O)c(O)c(O)c3-c3c(cc(O)c(O)c3O)C(=O)OC[C@H]2OC(O)[C@@H]1OC(=O)c1cc(O)c(O)c(O)c1)c1cc(O)c(O)c(O)c1 (some centres unmarked) [Tellimagrandin 1, tellimagrandin 1, reference compound] | 5.9 | 4.6 | 6.5 | weak activity |  |  |  | 42.7% | greater activity than the blue rose petal extract | also active, though not so active as rosadelphin A1 | elastase inhibiting activity (in words) ([2]; listed as tellimagrandin 1): little activity; IC50 (hyaluronidase inhibition) ([1]; Table 3): 196.5 µg/mL (≈ 250 µM); Percent hyaluronidase inhibition (%) [1, 7]: 64.8%
O=C(OC1C(O)OC2COC(=O)c3cc(Oc4c(-c5ccc(O)c(O)c5)[o+]c5cc(O)cc6c5c4-c4c(C(=O)O)cc(O)c(O)c4O6)c(O)c(O)c3-c3c(cc(O)c(O)c3O)C(=O)OC2C1OC(=O)c1cc(O)c(O)c(O)c1)c1cc(O)c(O)c(O)c1 (centres unmarked) [Rosacyanin A1, rosacyanin A1] |  |  |  | strong activity | 24.7 | 49.1 | 93.2 | 52.0% | greater activity than the blue rose petal extract | comparable activity to rosadelphin A1 | hyaluronidase inhibitory activity (in words) ([1]; listed as rosacyanin A1): strong hyaluronidase inhibitory activity

Reference: patent US10105313B2, “Uses of rose pigment compounds” (SUNTORY HOLDINGS LIMITED, priority 2014, dated 2018)
